Assay results reported in the supplement of paper PMC6045584.
± gives the standard deviation of the averaged measurements.

Key:
OSI-906 = compound: C[C@]1(O)C[C@@H](c2nc(-c3ccc4ccc(-c5ccccc5)nc4c3)c3c(N)nccn32)C1 [OSI-906]; assay: surviving fraction relative to DMSO-only wells; higher = less growth inhibition; settings: exposure time: 5 days
Outline: (§1)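 Tumour cell lines were grown to log phase and seeded at 250–500 cells per well in 384-well plates. They were exposed continuously to inhibitors at 0.5, 1, 5, 10, 50, 100, 500 and 1000 nM for five days, beginning 24 hours after seeding. Surviving fraction is CellTiter-Glo luminescence normalised to the median of DMSO-only wells.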

YM155 = compound: COCC[n+]1c2c(n(Cc3cnccn3)c1C)C(=O)c1ccccc1C2=O [YM155]; assay: as above; settings: exposure time: 5 days
Outline: as §1

| Test System | surviving fraction (OSI-906; 0.5 nM) | surviving fraction (OSI-906; 1 nM) | surviving fraction (OSI-906; 5 nM) | surviving fraction (OSI-906; 10 nM) | surviving fraction (OSI-906; 50 nM) | surviving fraction (OSI-906; 100 nM) | surviving fraction (OSI-906; 500 nM) | surviving fraction (OSI-906; 1000 nM) | surviving fraction (YM155; 0.5 nM) | surviving fraction (YM155; 1 nM) | surviving fraction (YM155; 5 nM) | surviving fraction (YM155; 10 nM) | surviving fraction (YM155; 50 nM) | surviving fraction (YM155; 100 nM) | surviving fraction (YM155; 500 nM) | surviving fraction (YM155; 1000 nM) |
| --- | --- | --- | --- | --- | --- | --- | --- | --- | --- | --- | --- | --- | --- | --- | --- | --- |
| H23 LUNG | 0.902 ± 0.047 | 0.897 ± 0.044 | 0.931 ± 0.05 | 0.904 ± 0.03 | 0.879 ± 0.031 | 0.848 ± 0.061 | 0.662 ± 0.016 | 0.607 ± 0.03 | 0.78 ± 0.053 | 0.822 ± 0.056 | 0.125 ± 0.014 | 0.113 ± 0.003 | 0.0233 ± 0.0021 | 0.02 ± 0.0017 | 0.0163 ± 0.0011 | 0.0227 ± 0.0015 |
| SUM44 BREAST | 0.844 ± 0.044 | 0.878 ± 0.1 | 0.948 ± 0.047 | 0.8813 ± 0.0072 | 1.01 ± 0.17 | 0.965 ± 0.14 | 0.887 ± 0.18 | 0.862 ± 0.13 | 1.05 ± 0.16 | 1.15 ± 0.24 | 1.1 ± 0.2 | 1 ± 0.27 | 0.358 ± 0.12 | 0.225 ± 0.055 | 0.121 ± 0.049 | 0.125 ± 0.064 |
| VCAP PROSTATE | 0.908 ± 0.023 | 0.867 ± 0.039 | 0.962 ± 0.028 | 0.999 ± 0.14 | 0.942 ± 0.16 | 0.83 ± 0.064 | 0.399 ± 0.046 | 0.188 ± 0.029 | 0.826 ± 0.049 | 0.9053 ± 0.0074 | 0.34 ± 0.025 | 0.286 ± 0.051 | 0.0533 ± 0.027 | 0.035 ± 0.007 | 0.0293 ± 0.0067 | 0.0617 ± 0.03 |
| CME SYNOVIAL | 0.905 ± 0.26 | 0.854 ± 0.13 | 0.934 ± 0.15 | 0.973 ± 0.075 | 1.08 ± 0.058 | 1.14 ± 0.21 | 0.984 ± 0.095 | 0.823 ± 0.13 | 0.752 ± 0.12 | 0.95 ± 0.22 | 0.468 ± 0.037 | 0.254 ± 0.049 | 0.232 ± 0.023 | 0.206 ± 0.0035 | 0.189 ± 0.0055 | 0.27 ± 0.029 |
| HCT15 LARGE INTESTINE | 0.829 ± 0.073 | 0.82 ± 0.048 | 0.811 ± 0.069 | 0.871 ± 0.086 | 0.929 ± 0.061 | 0.918 ± 0.023 | 0.911 ± 0.073 | 0.921 ± 0.04 | 0.916 ± 0.056 | 1.01 ± 0.051 | 0.975 ± 0.017 | 0.974 ± 0.029 | 0.467 ± 0.028 | 0.185 ± 0.029 | 0.061 ± 0.0027 | 0.0557 ± 0.0031 |
| S68 BREAST | 0.611 ± 0.24 | 0.727 ± 0.17 | 0.797 ± 0.27 | 0.721 ± 0.37 | 1.19 ± 0.28 | 1.06 ± 0.21 | 0.828 ± 0.19 | 0.756 ± 0.05 | 0.884 ± 0.076 | 1.1 ± 0.45 | 0.674 ± 0.092 | 0.586 ± 0.038 | 0.143 ± 0.016 | 0.0627 ± 0.0061 | 0.0267 ± 0.00058 | 0.0277 ± 0.0015 |
| SG43 HEADNECK | 1.21 ± 0.074 | 1.18 ± 0.13 | 0.829 ± 0.025 | 0.987 ± 0.12 | 0.695 ± 0.051 | 0.665 ± 0.06 | 0.697 ± 0.021 | 0.614 ± 0.021 | 1.18 ± 0.4 | 1.02 ± 0.032 | 0.744 ± 0.088 | 0.81 ± 0.15 | 0.783 ± 0.052 | 0.705 ± 0.084 | 0.159 ± 0.058 | 0.0523 ± 0.0084 |
| BT20 BREAST | 0.736 ± 0.051 | 0.724 ± 0.058 | 0.776 ± 0.05 | 0.763 ± 0.073 | 1 ± 0.031 | 1.05 ± 0.095 | 1.23 ± 0.05 | 1.28 ± 0.04 | 0.907 ± 0.077 | 0.875 ± 0.089 | 0.0757 ± 0.0075 | 0.0613 ± 0.006 | 0.028 ± 0.0017 | 0.025 ± 0.0027 | 0.019 ± 0.002 | 0.027 ± 0.002 |
| T47D BREAST | 0.9222 ± 0.0086 | 0.933 ± 0.038 | 0.9888 ± 0.0092 | 0.917 ± 0.02 | 0.982 ± 0.058 | 0.954 ± 0.028 | 0.868 ± 0.018 | 0.85 ± 0.018 | 0.959 ± 0.013 | 0.983 ± 0.027 | 0.917 ± 0.035 | 0.763 ± 0.0085 | 0.212 ± 0.01 | 0.131 ± 0.01 | 0.0481 ± 0.0042 | 0.0483 ± 0.0017 |
| VP229 BREAST | 0.856 ± 0.095 | 0.825 ± 0.078 | 0.874 ± 0.039 | 0.9 ± 0.038 | 0.925 ± 0.1 | 0.867 ± 0.048 | 0.767 ± 0.14 | 0.665 ± 0.11 | 1.04 ± 0.023 | 1.03 ± 0.18 | 0.903 ± 0.17 | 0.874 ± 0.081 | 0.265 ± 0.085 | 0.137 ± 0.0015 | 0.046 ± 0.01 | 0.042 ± 0.007 |
